Test results published in patent US8158792B2, “Spiropiperidines for use as tryptase inhibitors” (Janssen Pharmaceutica N.V., priority 2007, dated 2012).

target: human lung tryptase; assay: β-Tryptase In-Vitro Enzyme Assay; type: biochemical; conditions: human lung tryptase 1 nM, substrate H-D-HHT-Ala-Arg-pNa 500 μM, pH 7.4, room temperature
Procedure: The β-tryptase assay was conducted with human lung tryptase (Cortex Biochem #CP3033) in an aqueous buffer (10 mM Tris, 10 mM Hepes, 150 mM NaCl, 0.1% PEG 8000, pH 7.4) using the chromogenic substrate H-D-HHT-Ala-Arg-pNa. […] Percent inhibition was calculated by comparing the initial reaction velocity of samples without inhibitor to those with inhibitor. The initial reaction velocities were analyzed using Microsoft Excel.

| Structure (SMILES) | IC50 |
| --- | --- |
| NCc1cc2c(cc1F)OCC21CCN(C(=O)c2ccc(Cl)c(Cl)c2)CC1 [Cpd 308, 1-(3,4-dichlorophenyl)carbonyl-5′-aminomethyl-6′-fluoro-spiro[piperidine-4,3′-(2H)-benzo[b]furan]] | 7300 nM |
| NCc1ccc2c(c1)C1(CCN(C(=O)/C=C/c3ccccc3F)CC1)CO2 [Cpd 309, (E)-1-(2-fluoro-phenylethenyl)carbonyl-5′-aminomethyl-spiro[piperidine-4,3′-(2H)-benzo[b]furan]] | 100 nM |
| CNC(=N)c1ccc2c(c1)C1(CCN(C(=O)c3ccc(C#Cc4ccccc4)o3)CC1)CO2 [Cpd 310, 1-(5-phenylethynyl-furan-2-yl)carbonyl-5′-[methylamino(imino)methyl]-spiro[piperidine-4,3′-(2H)-benzo[b]furan]] | 780 nM |
| NCc1ccc2c(c1)C1(CCN(C(=O)/C=C/c3cccc(F)c3F)CC1)CO2 [Cpd 312, (E)-1-(2,3-difluoro-phenylethenyl)carbonyl-5′-aminomethyl-spiro[piperidine-4,3′-(2H)-benzo[b]furan]] | 590 nM |
| CN(C)C(=N)c1ccc2c(c1)C1(CCN(C(=O)c3ccc(C#Cc4ccccc4)o3)CC1)CO2 [Cpd 313, 1-(5-phenylethynyl-furan-2-yl)carbonyl-5′-[dimethylamino(imino)methyl]-spiro[piperidine-4,3′-(2H)-benzo[b]furan]] | 140 nM |
| NCCc1ccc2c(c1)C1(CCN(C(=O)c3ccc(C#Cc4ccccc4)o3)CC1)CO2 [Cpd 314, 1-(5-phenylethynyl-furan-2-yl)carbonyl-5′-aminoethyl-spiro[piperidine-4,3′-(2H)-benzo[b]furan]] | 1300 nM |
| NCc1ccc2c(c1)C1(CCN(C(=O)c3ccc(Cl)c(Cl)c3)CC1)C(=O)N2 [Cpd 315, 1-(3,4-dichlorophenyl)carbonyl-2′-oxo-5′-aminomethyl-spiro[piperidine-4,3′-(2H)-indole]] | 480 nM |
| COc1ccc(CN2C(=O)c3ccc(CN)cc3C23CCN(C(=O)c2ccc(C#Cc4ccccc4)o2)CC3)c(OC)c1 [Cpd 316, 1-(5-phenylethynyl-furan-2-yl)carbonyl-1′-oxo-2′-(2,4-dimethoxy-benzyl)-5′-aminomethyl-spiro[piperidine-4,3′-1H-isoindole]] | 74 nM |
| CCN1CC2(CCN(C(=O)c3ccc(C#Cc4ccccc4)o3)CC2)c2cc(CN)ccc21 [Cpd 320, 1-(5-phenylethynyl-furan-2-yl)carbonyl-1′-ethyl-5′-aminomethyl-spiro[piperidine-4,3′-(2H)-indole]] | 280 nM |
| COC(=O)CCN1CC2(CCN(C(=O)c3ccc(C#Cc4ccccc4)o3)CC2)c2cc(CN)ccc21 [Cpd 321, 1-(5-phenylethynyl-furan-2-yl)carbonyl-1′-(2-methoxycarbonyl-ethyl)-5′-aminomethyl-spiro[piperidine-4,3′-(2H)-indole]] | 160 nM |
| NCc1ccc2c(c1)C1(CCN(C(=O)c3ccc(C#Cc4ccccc4)o3)CC1)CN2CCC(=O)O [Cpd 322, 1-(5-phenylethynyl-furan-2-yl)carbonyl-1′-(2-carboxy-ethyl)-5′-aminomethyl-spiro[piperidine-4,3′-(2H)-indole]] | 450 nM |
| COC(=O)N1CC2(CCN(C(=O)c3ccc(C#Cc4ccccc4)o3)CC2)c2cc(CN)ccc21 [Cpd 323, 1-(5-phenylethynyl-furan-2-yl)carbonyl-1′-methoxycarbonyl-5′-aminomethyl-spiro[piperidine-4,3′-(2H)-indole]] | 110 nM |
| NCc1ccc2c(c1)C1(CCN(C(=O)c3ccc(C#Cc4ccccc4)o3)CC1)CN2S(=O)(=O)c1ccc(C(=O)O)cc1 [Cpd 324, 1-(5-phenylethynyl-furan-2-yl)carbonyl-1′-(4-carboxy-phenyl)sulfonyl-5′-aminomethyl-spiro[piperidine-4,3′-(2H)-indole]] | 200 nM |
| NCc1ccc2c(c1)C1(CCN(C(=O)c3ccc(C#Cc4ccccc4)o3)CC1)CN2CCP(=O)(O)O [Cpd 326, 1-(5-phenylethynyl-furan-2-yl)carbonyl-5′-aminomethyl-spiro[piperidine-4,3′-(2H)-indole]-1′-(2-ethyl-phosphonic acid)] | 470 nM |
| COC(=O)c1cccc(C(=O)N2CC3(CCN(C(=O)c4ccc(C#Cc5ccccc5)o4)CC3)c3cc(CN)ccc32)c1 [Cpd 328, 1-(5-phenylethynyl-furan-2-yl)carbonyl-1′-(3-methoxycarbonyl-phenyl)carbonyl-5′-aminomethyl-spiro[piperidine-4,3′-(2H)-indole]] | 290 nM |
| CNNC1CC(S(=O)(=O)N2CC3(CCN(C(=O)c4ccc(C#Cc5ccccc5)o4)CC3)c3cc(CN)ccc32)CS1(=O)=O (centres unmarked) [Cpd 338, 1-(5-phenylethynyl-furan-2-yl)carbonyl-1′-[5-(N′-methyl-hydrazino)-1,1-dioxo-3,4,5-trihydro-(2H)-thien-3-yl]sulfonyl-5′-aminomethyl-spiro[piperidine-4,3′-(2H)-indole]] | 73 nM |

Molecules with a lower IC50, results first:

| IC50 | Structure (SMILES) |
| --- | --- |
| 60 nM | N=C(NN)c1ccc2c(c1)C1(CCN(C(=O)c3ccc(C#Cc4ccccc4)o3)CC1)CO2 [Cpd 307, 1-(5-phenylethynyl-furan-2-yl)carbonyl-5′-[hydrazino(imino)methyl]-spiro[piperidine-4,3′-(2H)-benzo[b]furan]] |
| 39 nM | NCc1cc2c(cc1F)OCC21CCN(C(=O)c2ccc(C#Cc3ccccc3)o2)CC1 [Cpd 311, 1-(5-phenylethynyl-furan-2-yl)carbonyl-5′-aminomethyl-6′-fluoro-spiro[piperidine-4,3′-(2H)-benzo[b]furan]] |
| 7.3 nM | NCc1ccc2c(c1)C1(CCN(C(=O)c3ccc(C#Cc4ccccc4)o3)CC1)NC2=O [Cpd 317, 1-(5-phenylethynyl-furan-2-yl)carbonyl-1′-oxo-5′-aminomethyl-spiro[piperidine-4,3′-1H-isoindole]] |
| 3.1 nM | NCc1ccc2c(c1)C1(CC2)CCN(C(=O)c2ccc(C#Cc3ccccc3)o2)CC1 [Cpd 318, 1-(5-phenylethynyl-furan-2-yl)carbonyl-5′-aminomethyl-spiro[piperidine-4,3′-indane]] |
| 26 nM | NCc1ccc2c(c1)C1(CCN(C(=O)c3ccc(C#Cc4ccccc4)o3)CC1)CN2 [Cpd 319, 1-(5-phenylethynyl-furan-2-yl)carbonyl-5′-aminomethyl-spiro[piperidine-4,3′-(2H)-indole]] |
| 25 nM | NCc1ccc2c(c1)C1(CCN(C(=O)c3ccc(C#Cc4ccccc4)o3)CC1)CN2C(N)=O [Cpd 325, 1-(5-phenylethynyl-furan-2-yl)carbonyl-1′-aminocarbonyl-5′-aminomethyl-spiro[piperidine-4,3′-(2H)-indole]] |
| 18 nM | NCc1ccc2c(c1)C1(CCN(C(=O)c3ccc(C#Cc4ccccc4)o3)CC1)CN2S(=O)(=O)O [Cpd 327, 1-(5-phenylethynyl-furan-2-yl)carbonyl-1′-hydroxysulfonyl-5′-aminomethyl-spiro[piperidine-4,3′-(2H)-indole]] |
| 44 nM | CCOC(=O)C(=O)N1CC2(CCN(C(=O)c3ccc(C#Cc4ccccc4)o3)CC2)c2cc(CN)ccc21 [Cpd 329, 1-(5-phenylethynyl-furan-2-yl)carbonyl-1′-(2-ethoxy-1,2-dioxo-ethyl)-5′-aminomethyl-spiro[piperidine-4,3′-(2H)-indole]] |
| 25 nM | NCc1ccc2c(c1)C1(CCN(C(=O)c3ccc(C#Cc4ccccc4)o3)CC1)CN2C(=O)Cc1nnn[nH]1 [Cpd 330, 1-(5-phenylethynyl-furan-2-yl)carbonyl-1′-(2-1H-tetrazol-5-yl-1-oxo-ethyl)-5′-aminomethyl-spiro[piperidine-4,3′-(2H)-indole]] |
| 41 nM | NCc1ccc2c(c1)C1(CCN(C(=O)c3ccc(C#Cc4ccccc4)o3)CC1)CN2S(=O)(=O)c1cccc(C(=O)O)c1 [Cpd 331, 1-(5-phenylethynyl-furan-2-yl)carbonyl-1′-(3-carboxy-phenyl)sulfonyl-5′-aminomethyl-spiro[piperidine-4,3′-(2H)-indole]] |
| 28 nM | CCOC(=O)CC(NNC)C(=O)N1CC2(CCN(C(=O)c3ccc(C#Cc4ccccc4)o3)CC2)c2cc(CN)ccc21 (centres unmarked) [Cpd 332, 1-(5-phenylethynyl-furan-2-yl)carbonyl-1′-[4-ethoxy-2-(methylamino)amino-1,4-dioxo-butyl]-5′-aminomethyl-spiro[piperidine-4,3′-(2H)-indole]] |
| 65 nM | CS(=O)(=O)CC(=O)N1CC2(CCN(C(=O)c3ccc(C#Cc4ccccc4)o3)CC2)c2cc(CN)ccc21 [Cpd 333, 1-(5-phenylethynyl-furan-2-yl)carbonyl-1′-(methylsulfonylmethyl)carbonyl-5′-aminomethyl-spiro[piperidine-4,3′-(2H)-indole]] |
| 47 nM | NCc1ccc2c(c1)C1(CCN(C(=O)c3ccc(C#Cc4ccccc4)o3)CC1)CN2C(=O)c1nnn[nH]1 [Cpd 334, 1-(5-phenylethynyl-furan-2-yl)carbonyl-1′-(1H-tetrazol-5-yl)carbonyl-5′-aminomethyl-spiro[piperidine-4,3′-(2H)-indole]] |
| 20 nM | NCc1ccc2c(c1)C1(CCN(C(=O)c3ccc(C#Cc4ccccc4)o3)CC1)CN2C(=O)CS(=O)(=O)O [Cpd 335, 1-(5-phenylethynyl-furan-2-yl)carbonyl-1′-(hydroxysulfonylmethyl)carbonyl-5′-aminomethyl-spiro[piperidine-4,3′-(2H)-indole]] |
| 28 nM | Cn1cnc(S(=O)(=O)N2CC3(CCN(C(=O)c4ccc(C#Cc5ccccc5)o4)CC3)c3cc(CN)ccc32)c1 [Cpd 336, 1-(5-phenylethynyl-furan-2-yl)carbonyl-1′-(1-methyl-imidazol-4-yl)sulfonyl-5′-aminomethyl-spiro[piperidine-4,3′-(2H)-indole]] |
| 36 nM | NCc1ccc2c(c1)C1(CCN(C(=O)c3ccc(C#Cc4ccccc4)o3)CC1)CN2S(=O)(=O)c1ccc(C(=O)O)o1 [Cpd 337, 1-(5-phenylethynyl-furan-2-yl)carbonyl-1′-(5-carboxy-furan-2-yl)sulfonyl-5′-aminomethyl-spiro[piperidine-4,3′-(2H)-indole]] |
